In brackets after ≈: the same amount, converted by molar mass. Residues, ends and D or L forms follow the SMILES beside them.
What was measured:
[1] = system: Pseudomonas aeruginosa PAO1 strain H103; assay type: cell-based
In short: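 Modified broth microdilution MIC in Mueller Hinton medium, peptides diluted in 0.01% acetic acid/0.2% BSA, polypropylene plates. Inoculum 2-7×10^5 CFU/ml, overnight at 37 °C; MIC is the lowest concentration with no visible growth.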

[2] = system: Enterococcus faecalis ATCC29212; assay type: cell-based; details: ATCC29212
In short: (§1)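 First, peptides were serially diluted at ten times final strength in 0.01% acetic acid with 0.2% BSA. These were then added to Mueller Hinton medium and inoculated with overnight-grown organisms at 2-7×10^5 CFU/ml. After overnight incubation at 37° C, the MIC was scored as the concentration without growth.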

[3] = system: Staphylococcus aureus ATCC25923; assay type: cell-based; details: ATCC25923
In short: as §1

[4] = system: clinical isolates of MRSA; assay type: cell-based, Staphylococcus aureus
Procedure: (§2) Minimal inhibitory concentration (MIC) determination. The MIC of the peptides were measured using a modified broth microdilution method in Mueller Hinton (MH) medium (Wu M, Hancock R E W. 1999. Interaction of the cyclic antimicrobial cationic peptide bactenecin with the outer and cytoplasmic membrane. J Biol Chem 274, 29-35). Briefly, the peptides were dissolved and stored in glass vials. The assay was performed in sterile 96-well polypropylene microtitre plates were used. Serial dilutions of the peptides to be assayed were performed in 0.01% acetic acid (Fisher) containing 0.2% bovine serum albumin (Boehringer Mannheim GmbH) at 10× the desired final concentration. Ten microlitres of the 10× peptides were added to each well of a 96-well polypropylene plate containing 90 μl of MH media per well. Bacteria were added to the plate from an overnight culture at 2-7×10^5 colony forming units/ml and incubated over night at 37° C. The MIC was taken as the concentration at which no growth was observed.
(§3) All peptides derived from the 1st, 2nd, and 3rd quartiles were further evaluated for their antibacterial activities against several highly antibitoic resistant pathogens (Table 3). These included clinical isolates of MRSA, ESBL E. cloacae, and multidrug resistant Pseudomonas strains including Brazilian clinical isolates of P. aeruginosa that are resistant to meropenem, ceftazidime, piperacillin/tazobactam, ciprofloxacin, cefepime and polymyxin B, and the Liverpool Epidemic Strains. […] Such results characterize the developed peptides as excellent antibiotic candidates, providing new means for treating most dangerous and severe forms of human infections.

[5] = system: ESBL E. cloacae; assay type: cell-based, Enterobacter cloacae
Procedure: as §2, §3

[6] = system: Liverpool Epidemic Strains; assay type: cell-based, Pseudomonas aeruginosa
Procedure: as §2, §3

[7] = system: multidrug resistant Brazilian clinical isolates of P. aeruginosa; assay type: cell-based, Pseudomonas aeruginosa
Procedure: as §2, §3

[8] = system: MCP-1 release by human PBMC; experiment: Chemokine induction in PBMC (capture ELISA); assay type: cell-based; details: background (204) subtracted
In short: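 Heparinized blood from healthy volunteers; Ficoll-isolated human PBMC (7.5×10^5) treated with peptides at 20 or 100 μg/ml for 24 hours at 37° C, 5% CO2. Cell-free supernatants assayed for MCP-1 by capture ELISA.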

[9] = system: MCP-3 release by human PBMC; experiment: Chemokine induction in PBMC (capture ELISA); assay type: cell-based; details: background (6) subtracted
In short: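 Human PBMC from healthy donors (Ficoll-isolated), 7.5×10^5 cells at 0.75–1×10^6 cells/ml, treated with peptides at 20 or 100 μg/ml for 24 h at 37° C, 5% CO2. MCP-3 in cell-free supernatants measured by capture ELISA.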

[10] = system: CXCL1 (Gro-α) release by human PBMC; experiment: Chemokine induction in PBMC (capture ELISA); assay type: cell-based; details: background (196) subtracted
In short: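 Human PBMC from healthy donors' heparinised blood (Ficoll), 7.5×10^5 cells treated with 20 or 100 μg/ml peptide for 24 h at 37° C, 5% CO2. Cell-free supernatants assayed for CXCL1 by capture ELISA.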

[11] = system: ESBL E. coli clinical strain 64771; assay type: cell-based; details: ESBL clinical strain 64771
Procedure: as §2
(§4) The selected peptides were synthesized and assayed against several major antibiotic-resistant pathogens. Initially, the peptides were screened against the laboratory strain of P. aeruginosa PAO1 to compare the results with the training data. […] The antibacterial activity in the form of minimal inhibitory concentration (MIC) of the other studied peptides was assessed in greater depth (Table 9) against many highly antibiotic resistanct pathogens.

[12] = system: ESBL Klebsiella pneumonia clinical strain 63575; assay type: cell-based
Procedure: as §2, §4

[13] = system: multidrug resistant Pseudomonas maltophilia ATCC13637; assay type: cell-based
Procedure: as §2, §4

Row | Compound | antimicrobial activity against P. aeruginosa PAO1 (in words) ([1]; laboratory strain P. aeruginosa PAO1) | MIC [2] | MIC [3] | MIC [4] | MIC [5] | MIC [6] | MIC [7] | Chemokine induction MCP-1 ([8]; 20 μg/ml peptide) | Chemokine induction MCP-1 ([8]; 100 μg/ml peptide) | Chemokine induction MCP-3 ([9]; 20 μg/ml peptide) | Chemokine induction MCP-3 ([9]; 100 μg/ml peptide) | Chemokine induction Gro-α ([10]; 20 μg/ml peptide) | Chemokine induction Gro-α ([10]; 100 μg/ml peptide) | MIC [11] | MIC [12] | MIC [13] | MIC against P. aeruginosa PAO1 ([1]; PAO1)
1 | CC[C@H](C)[C@H](NC(=O)[C@H](C)N)C(=O)N[C@@H](CCCNC(=N)N)C(=O)N[C@@H](CCCNC(=N)N)C(=O)N[C@@H](Cc1c[nH]c2ccccc12)C(=O)N[C@@H](CCCNC(=N)N)C(=O)N[C@H](C(=O)N[C@@H](CCCNC(=N)N)C(=O)N[C@@H](CCCCN)C(N)=O)[C@@H](C)CC [HHC142, AIRRWRIRK] (H-AIRRWRIRK-NH2; N-terminus assumed) | did not return any generally active substances | >217 µM | 54 µM (≈ 67.7 µg/mL) | 54 µM (≈ 67.7 µg/mL) | 108 µM (≈ 135 µg/mL) | 217 µM (≈ 272 µg/mL) | >217 µM | 67 pg/mL | -16 pg/mL | 1 pg/mL | 0 pg/mL | 59 pg/mL | 22 pg/mL | 108 µM (≈ 135 µg/mL) | >217 µM | 108 µM (≈ 135 µg/mL) | –
2 | CC[C@H](C)[C@H](NC(=O)[C@H](CCCCN)NC(=O)[C@H](Cc1c[nH]c2ccccc12)NC(=O)[C@@H](N)CCCCN)C(=O)N[C@@H](Cc1ccccc1)C(=O)N[C@@H](CCCNC(=N)N)C(=O)N[C@@H](CCCNC(=N)N)C(=O)N[C@@H](Cc1c[nH]c2ccccc12)C(=O)N[C@@H](Cc1c[nH]c2ccccc12)C(N)=O [HHC71, KWKIFRRWW] (H-KWKIFRRWW-NH2; N-terminus assumed) | – | 24 µM (≈ 33.7 µg/mL) | 3 µM (≈ 4.21 µg/mL) | 3 µM (≈ 4.21 µg/mL) | 6 µM (≈ 8.43 µg/mL) | 3 µM (≈ 4.21 µg/mL) | 24 µM (≈ 33.7 µg/mL) | -6 pg/mL | 99 pg/mL | 0 pg/mL | 2 pg/mL | -17 pg/mL | 1 pg/mL | 12 µM (≈ 16.9 µg/mL) | 97 µM (≈ 136 µg/mL) | 1.5 µM (≈ 2.11 µg/mL) | 4 to 12 µM
3 | N=C(N)NCCC[C@H](NC(=O)[C@H](Cc1c[nH]c2ccccc12)NC(=O)[C@H](CCCCN)NC(=O)[C@H](CCCCN)NC(=O)[C@H](Cc1c[nH]c2ccccc12)NC(=O)[C@H](Cc1c[nH]c2ccccc12)NC(=O)[C@H](CCCNC(=N)N)NC(=O)[C@H](CCCCN)NC(=O)[C@@H](N)Cc1c[nH]c2ccccc12)C(N)=O [HHC45, WKRWWKKWR] (H-WKRWWKKWR-NH2; N-terminus assumed) | – | 93 µM (≈ 136 µg/mL) | 68 µM (≈ 99.2 µg/mL) | 6 µM (≈ 8.75 µg/mL) | 93 µM (≈ 136 µg/mL) | 6 µM (≈ 8.75 µg/mL) | 46 µM (≈ 67.1 µg/mL) | -9 pg/mL | 161 pg/mL | -2 pg/mL | -2 pg/mL | -15 pg/mL | -32 pg/mL | 3 µM (≈ 4.38 µg/mL) | 46 µM (≈ 67.1 µg/mL) | 1.4 µM (≈ 2.04 µg/mL) | –
4 | N=C(N)NCCC[C@H](NC(=O)[C@H](CCCNC(=N)N)NC(=O)[C@H](CCCCN)NC(=O)[C@H](Cc1c[nH]c2ccccc12)NC(=O)[C@H](Cc1c[nH]c2ccccc12)NC(=O)[C@H](CCCCN)NC(=O)[C@H](CCCCN)NC(=O)[C@@H](N)Cc1c[nH]c2ccccc12)C(=O)N[C@@H](Cc1c[nH]c2ccccc12)C(N)=O [HHC48, WKKWWKRRW] (H-WKKWWKRRW-NH2; N-terminus assumed) | – | 93 µM (≈ 136 µg/mL) | 1.4 µM (≈ 2.04 µg/mL) | 39 µM (≈ 56.9 µg/mL) | 23 µM (≈ 33.6 µg/mL) | 6 µM (≈ 8.75 µg/mL) | 46 µM (≈ 67.1 µg/mL) | 2 pg/mL | 12 pg/mL | -1 pg/mL | -1 pg/mL | -8 pg/mL | -10 pg/mL | 3 µM (≈ 4.38 µg/mL) | 46 µM (≈ 67.1 µg/mL) | 1.4 µM (≈ 2.04 µg/mL) | –

Source: patent US8343475B2, “Small cationic antimicrobial peptides” (priority 2006, dated 2013)
